# From patent US9132140B2, “Boronic acid derivatives and therapeutic uses thereof” (Rempex Pharmaceuticals, Inc., priority 2013, dated 2015)
# Legend:
# NDM-1 = NDM-1 (Klebsiella pneumoniae, UniProt C7C422); assay: biochemical; conditions: substrate imipenem 100 μM
# CTX-M-14 = CTX-M-14 (Escherichia coli, UniProt Q9L5C7); assay: Inhibition of purified beta-lactamase, nitrocefin cleavage; format: biochemical
# In short: (§1)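 10 min RT preincubation, enzyme with inhibitor series in reaction buffer. Substrate nitrocefin; kinetic read 490 nm, 10 sec intervals, 10 min total.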
# OXA-48 = OXA-48 (Klebsiella pneumoniae, UniProt Q6XEC0); assay: as above; format: biochemical; conditions: read-out: Ki (OXA-48, NCF)
# OXA-48, sequence (Q6XEC0 23-265, looked up): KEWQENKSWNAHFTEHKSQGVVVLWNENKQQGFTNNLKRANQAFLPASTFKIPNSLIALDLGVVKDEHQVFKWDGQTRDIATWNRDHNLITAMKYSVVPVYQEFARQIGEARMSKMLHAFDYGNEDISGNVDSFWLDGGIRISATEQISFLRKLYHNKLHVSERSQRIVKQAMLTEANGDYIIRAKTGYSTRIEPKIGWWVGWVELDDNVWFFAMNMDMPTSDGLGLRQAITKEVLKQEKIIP
# In short: as §1
# SHV-12 = SHV-12 (Klebsiella pneumoniae, UniProt P0AD64, E235K/G234S/L31Q); assay: as above; format: biochemical; conditions: read-out: Ki (SHV-12, NCF)
# SHV-12, sequence (P0AD64 22-286 L31Q/G234S/E235K): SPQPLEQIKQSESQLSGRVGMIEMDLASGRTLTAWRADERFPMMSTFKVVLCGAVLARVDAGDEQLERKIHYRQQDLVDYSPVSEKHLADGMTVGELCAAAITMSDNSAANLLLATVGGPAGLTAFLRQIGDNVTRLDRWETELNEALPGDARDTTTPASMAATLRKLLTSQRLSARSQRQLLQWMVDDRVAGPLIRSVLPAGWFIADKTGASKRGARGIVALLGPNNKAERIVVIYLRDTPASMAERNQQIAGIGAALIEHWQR
# In short: as §1
# [1] = system: EC1064 (NDM-1, CMY-6, CTX-M-15); format: cell-based, Escherichia coli
# From the text: (§2) Several strains simultaneously expressing both class A and class B carbapenemases, which were constructed using conjugation, were also included in the panel.
# EC1061 (NDM-1, CMY-6) = format: cell-based, Escherichia coli
# From the text: as §2
# EC1068 (VIM-1) = format: cell-based, Escherichia coli
# From the text: as §2
# EC1065 (IMP-1 CMY-2) = format: cell-based, Escherichia coli
# From the text: as §2
# ECL1045 (VIM-1) = format: cell-based, Enterobacter cloacae
# From the text: as §2
# ECLM1017 (VIM, KPC) = format: cell-based, Enterobacter cloacae
# From the text: as §2
# ECLM1019 (VIM, KPC) = format: cell-based, Enterobacter cloacae
# From the text: as §2
# ECL1026 (KPC) = format: cell-based, Enterobacter cloacae
# From the text: as §2
# ECLM1016 (NDM, KPC) = format: cell-based, Enterobacter cloacae
# From the text: as §2
# [2] = system: ECL1057 (NDM-1, TEM-1, CTX-M-15); format: cell-based, Enterobacter cloacae
# From the text: as §2
# ECLM1018 (VIM, KPC) = format: cell-based, Enterobacter cloacae
# From the text: as §2
# ECL1082 (VIM-1) = format: cell-based, Enterobacter cloacae
# From the text: as §2
# ECL1036 (KPC) = format: cell-based, Enterobacter cloacae
# From the text: as §2
# NDM-1, sequence (C7C422 29-270, looked up, species assumed): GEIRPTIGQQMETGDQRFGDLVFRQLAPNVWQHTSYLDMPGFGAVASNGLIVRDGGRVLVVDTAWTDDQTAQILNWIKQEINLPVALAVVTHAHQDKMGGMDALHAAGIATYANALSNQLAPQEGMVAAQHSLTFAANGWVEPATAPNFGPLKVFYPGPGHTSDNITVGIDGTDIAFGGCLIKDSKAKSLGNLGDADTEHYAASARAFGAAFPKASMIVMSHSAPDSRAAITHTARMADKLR
# CTX-M-14, sequence (Q9L5C7 entry or part of it): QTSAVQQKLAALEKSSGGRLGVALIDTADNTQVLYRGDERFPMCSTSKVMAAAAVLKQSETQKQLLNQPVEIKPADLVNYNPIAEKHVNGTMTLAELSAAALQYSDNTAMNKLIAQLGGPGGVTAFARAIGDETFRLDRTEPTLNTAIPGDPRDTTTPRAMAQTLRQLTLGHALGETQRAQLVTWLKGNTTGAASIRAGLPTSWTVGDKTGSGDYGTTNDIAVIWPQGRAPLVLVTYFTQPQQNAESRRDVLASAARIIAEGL
smiles,measurement,setting,value
"Nn1cnnc1S[C@H]1Cc2cccc(C(=O)O)c2OB1O [Compound 14, (R)-3-(4-amino-4H-1,2,4-triazol-3-ylthio)-2-hydroxy-3,4-dihydro-2H-benzo[e][1,2]oxaborinine-8-carboxylic acid]",Ki,NDM-1,10 to 100 nM
same,Ki,CTX-M-14,< 100 nM
same,Ki,OXA-48,< 100 nM
same,Ki,SHV-12,< 100 nM
same,Imipenem + 14 MIC,[1],X (key: X: MIC of less than 1 μg/mL; Y: MIC of 1 μg/mL to 10 μg/mL; Z: MIC of greater than 10 μg/mL)
same,Meropenem + 14 MIC,[1],Y (key: X: MIC of less than 1 μg/mL; Y: MIC of 1 μg/mL to 10 μg/mL; Z: MIC of greater than 10 μg/mL)
same,Imipenem + 14 MIC,"EC1061 (NDM-1, CMY-6)",X (key: X: MIC of less than 1 μg/mL; Y: MIC of 1 μg/mL to 10 μg/mL; Z: MIC of greater than 10 μg/mL)
same,Meropenem + 14 MIC,"EC1061 (NDM-1, CMY-6)",X (key: X: MIC of less than 1 μg/mL; Y: MIC of 1 μg/mL to 10 μg/mL; Z: MIC of greater than 10 μg/mL)
same,Imipenem + 14 MIC,EC1068 (VIM-1),X (key: X: MIC of less than 1 μg/mL; Y: MIC of 1 μg/mL to 10 μg/mL; Z: MIC of greater than 10 μg/mL)
same,Meropenem + 14 MIC,EC1068 (VIM-1),X (key: X: MIC of less than 1 μg/mL; Y: MIC of 1 μg/mL to 10 μg/mL; Z: MIC of greater than 10 μg/mL)
same,Imipenem + 14 MIC,EC1065 (IMP-1 CMY-2),X (key: X: MIC of less than 1 μg/mL; Y: MIC of 1 μg/mL to 10 μg/mL; Z: MIC of greater than 10 μg/mL)
same,Meropenem + 14 MIC,EC1065 (IMP-1 CMY-2),X (key: X: MIC of less than 1 μg/mL; Y: MIC of 1 μg/mL to 10 μg/mL; Z: MIC of greater than 10 μg/mL)
same,Imipenem + 14 MIC,ECL1045 (VIM-1),X (key: X: MIC of less than 1 μg/mL; Y: MIC of 1 μg/mL to 10 μg/mL; Z: MIC of greater than 10 μg/mL)
same,Meropenem + 14 MIC,ECL1045 (VIM-1),X (key: X: MIC of less than 1 μg/mL; Y: MIC of 1 μg/mL to 10 μg/mL; Z: MIC of greater than 10 μg/mL)
same,Imipenem + 14 MIC,"ECLM1017 (VIM, KPC)",X (key: X: MIC of less than 1 μg/mL; Y: MIC of 1 μg/mL to 10 μg/mL; Z: MIC of greater than 10 μg/mL)
same,Meropenem + 14 MIC,"ECLM1017 (VIM, KPC)",X (key: X: MIC of less than 1 μg/mL; Y: MIC of 1 μg/mL to 10 μg/mL; Z: MIC of greater than 10 μg/mL)
same,Imipenem + 14 MIC,"ECLM1019 (VIM, KPC)",X (key: X: MIC of less than 1 μg/mL; Y: MIC of 1 μg/mL to 10 μg/mL; Z: MIC of greater than 10 μg/mL)
same,Meropenem + 14 MIC,"ECLM1019 (VIM, KPC)",X (key: X: MIC of less than 1 μg/mL; Y: MIC of 1 μg/mL to 10 μg/mL; Z: MIC of greater than 10 μg/mL)
same,Imipenem + 14 MIC,ECL1026 (KPC),X (key: X: MIC of less than 1 μg/mL; Y: MIC of 1 μg/mL to 10 μg/mL; Z: MIC of greater than 10 μg/mL)
same,Meropenem + 14 MIC,ECL1026 (KPC),X (key: X: MIC of less than 1 μg/mL; Y: MIC of 1 μg/mL to 10 μg/mL; Z: MIC of greater than 10 μg/mL)
same,Imipenem + 14 MIC,"ECLM1016 (NDM, KPC)",X (key: X: MIC of less than 1 μg/mL; Y: MIC of 1 μg/mL to 10 μg/mL; Z: MIC of greater than 10 μg/mL)
same,Meropenem + 14 MIC,"ECLM1016 (NDM, KPC)",X (key: X: MIC of less than 1 μg/mL; Y: MIC of 1 μg/mL to 10 μg/mL; Z: MIC of greater than 10 μg/mL)
same,Imipenem + 14 MIC,[2],Y (key: X: MIC of less than 1 μg/mL; Y: MIC of 1 μg/mL to 10 μg/mL; Z: MIC of greater than 10 μg/mL)
same,Meropenem + 14 MIC,[2],Z (key: X: MIC of less than 1 μg/mL; Y: MIC of 1 μg/mL to 10 μg/mL; Z: MIC of greater than 10 μg/mL)
same,Imipenem + 14 MIC,"ECLM1018 (VIM, KPC)",Y (key: X: MIC of less than 1 μg/mL; Y: MIC of 1 μg/mL to 10 μg/mL; Z: MIC of greater than 10 μg/mL)
same,Meropenem + 14 MIC,"ECLM1018 (VIM, KPC)",X (key: X: MIC of less than 1 μg/mL; Y: MIC of 1 μg/mL to 10 μg/mL; Z: MIC of greater than 10 μg/mL)
same,Imipenem + 14 MIC,ECL1082 (VIM-1),X (key: X: MIC of less than 1 μg/mL; Y: MIC of 1 μg/mL to 10 μg/mL; Z: MIC of greater than 10 μg/mL)
same,Meropenem + 14 MIC,ECL1082 (VIM-1),X (key: X: MIC of less than 1 μg/mL; Y: MIC of 1 μg/mL to 10 μg/mL; Z: MIC of greater than 10 μg/mL)
same,Imipenem + 14 MIC,ECL1036 (KPC),X (key: X: MIC of less than 1 μg/mL; Y: MIC of 1 μg/mL to 10 μg/mL; Z: MIC of greater than 10 μg/mL)
